Test results from patent US20130281494A1, “POLYMORPHS OF N-(6-(4-CHLOROPHENOXY)HEXYL)-N'-CYANO-N"-(4-PYRIDYL)GUANIDINE, AND PREPARATION THEREOF AND USE THEREOF” (Tianjin Michele Sci-Tech Development Co., Ltd., priority 2010, published 2013).

system: human lung cancer tumor xenograft; assay: not given; settings: cited from earlier work

Row | SMILES | antitumor activity in the nude mice model
1 | N#C/N=C(\NCCCCCCOc1ccc(Cl)cc1)Nc1ccncc1 [N-(6-(4-chlorophenoxy)hexyl)-N′-cyano-N″-(4-pyridyl)guanidine] | potent antitumor activity

system: human tumor cells; assay: not given; settings: nude mouse transplanted with human tumor cells; cited from earlier work

Row | SMILES | antitumor activity in vivo
2 | N#C/N=C(\NCCCCCCOc1ccc(Cl)cc1)Nc1ccncc1 [N-(6-(4-chlorophenoxy)hexyl)-N′-cyano-N″-(4-pyridyl)guanidine] | highly potent antitumor activity

system: not listed separately; assay: Stability of polymorphs exposed to the air at room temperature for 12 months, purity by HPLC; type: physicochemical; settings: before exposure
Description: The obtained purity results thereof were shown s follows.
The purities were measured by using high performance liquid chromatography under the following conditions.
Chromatographic Column. […] ODS (150*4.6 mm, 5μ)
Phase A: 11.5% (v/v) of acetonitrile aqueous solution containing 0.01 mol/L of lauryl sodium sulfate and 0.0125 mol/L of dipotassium hydrogen phosphate (adjusted to pH 2.5 with phosphoric acid)
Column Temperature: 40° C.;
Detection Wavelength: 278 nm;

Row | SMILES | Original Purity
3 | N#C/N=C(\NCCCCCCOc1ccc(Cl)cc1)Nc1ccncc1 [Polymorph I, N-(6-(4-chlorophenoxy)hexyl)-N′-cyano-N″-(4-pyridyl)guanidine] | 98.01%
4 | N#C/N=C(\NCCCCCCOc1ccc(Cl)cc1)Nc1ccncc1 [Polymorph II, N-(6-(4-chlorophenoxy)hexyl)-N′-cyano-N″-(4-pyridyl)guanidine] | 99.45%
5 | N#C/N=C(\NCCCCCCOc1ccc(Cl)cc1)Nc1ccncc1 [Polymorph III, N-(6-(4-chlorophenoxy)hexyl)-N′-cyano-N″-(4-pyridyl)guanidine] | 97.83%
6 | N#C/N=C(\NCCCCCCOc1ccc(Cl)cc1)Nc1ccncc1 [Polymorph IV, N-(6-(4-chlorophenoxy)hexyl)-N′-cyano-N″-(4-pyridyl)guanidine] | 99.59%
7 | N#C/N=C(\NCCCCCCOc1ccc(Cl)cc1)Nc1ccncc1 [Polymorph V, N-(6-(4-chlorophenoxy)hexyl)-N′-cyano-N″-(4-pyridyl)guanidine] | 95.82%
8 | N#C/N=C(\NCCCCCCOc1ccc(Cl)cc1)Nc1ccncc1 [Polymorph VI, N-(6-(4-chlorophenoxy)hexyl)-N′-cyano-N″-(4-pyridyl)guanidine] | 99.55%

same assay, conditions: exposed to the air at room temperature for 12 months

Row | SMILES | Purity (after exposed for 12 months)
9 | N#C/N=C(\NCCCCCCOc1ccc(Cl)cc1)Nc1ccncc1 [Polymorph I, N-(6-(4-chlorophenoxy)hexyl)-N′-cyano-N″-(4-pyridyl)guanidine] | 97.49%
10 | N#C/N=C(\NCCCCCCOc1ccc(Cl)cc1)Nc1ccncc1 [Polymorph II, N-(6-(4-chlorophenoxy)hexyl)-N′-cyano-N″-(4-pyridyl)guanidine] | 99.36%
11 | N#C/N=C(\NCCCCCCOc1ccc(Cl)cc1)Nc1ccncc1 [Polymorph III, N-(6-(4-chlorophenoxy)hexyl)-N′-cyano-N″-(4-pyridyl)guanidine] | 97.56%
12 | N#C/N=C(\NCCCCCCOc1ccc(Cl)cc1)Nc1ccncc1 [Polymorph IV, N-(6-(4-chlorophenoxy)hexyl)-N′-cyano-N″-(4-pyridyl)guanidine] | 99.45%
13 | N#C/N=C(\NCCCCCCOc1ccc(Cl)cc1)Nc1ccncc1 [Polymorph V, N-(6-(4-chlorophenoxy)hexyl)-N′-cyano-N″-(4-pyridyl)guanidine] | 95.02%
14 | N#C/N=C(\NCCCCCCOc1ccc(Cl)cc1)Nc1ccncc1 [Polymorph VI, N-(6-(4-chlorophenoxy)hexyl)-N′-cyano-N″-(4-pyridyl)guanidine] | 99.28%

system: human lung cancer and breast cancer cell lines; assay: not given; settings: cited from earlier work

Row | SMILES | antiproliferative activity in vitro
15 | N#C/N=C(\NCCCCCCOc1ccc(Cl)cc1)Nc1ccncc1 [N-(6-(4-chlorophenoxy)hexyl)-N′-cyano-N″-(4-pyridyl)guanidine] | high antiproliferative activity
